Data on 4 molecules can be found in US10912767B2, “Anthracycline prodrugs and methods of making and using the same” (THE REGENTS OF THE UNIVERSITY OF COLORADO, priority 2015, dated 2021).

The IC50 is the concentration that gives 50% inhibition. Broadly, the half-life is the time needed for the level to fall by half in the phase considered.

Data set [1] concerns NCI/ADR-RES multi-drug resistant ovarian cancer cell line. Kind of data set: Tumor cell growth inhibition, crystal violet (Example 2). It counts as cell-based. As to conditions: Homo sapiens. An excerpt: (§1) In order to investigate the photolysis of the drugs in a system amenable to cell culture use, a custom UV irradiation apparatus was constructed, consisting of 3 small blacklight fluorescent bulbs (Southern New England Ultraviolet Co., λmax=350 nm) set between two ring stands and suspended at a height of 11.5 cm. The bulbs' housing was reflective aluminum so as to direct as much UV irradiation as possible downward toward the plate. Upon installation in sterile cell culture hood, the power of the system was measured at approximately 6-7 mW using a Scientech laser power meter. Prior to experimentation, the hood and irradiation apparatus was sterilized with 254 nm germicidal UV irradiation overnight. Using this setup, 100 μM of 4,5-dimethoxy-2-nitrobenyl alcohol (DMNA), photodoxazolidine R═H, and glucose-PEG-photodoxazoldine were irradiated in individual wells of a 24-well plate. Initially, 50 μL of a DMSO stock was diluted with 950 μL of PBS and aliquots of 50 μL were removed at various times (0-180 min), mixing by pipetting each time. The timepoints were analyzed by HPLC (method 2) and plotted as fractional conversion versus time. […] Therefore, a second experiment was performed in which the PBS was replaced with 1:1 acetonitrile:water. With this system of 5% DMSO/47.5% acetonitrile/47.5% water, no visible precipitation was produced over the course of the reaction.
(§2) The ovarian carcinoma line NCl/ADR-RES (ADR) was grown in high-glucose Dulbecco's Modified Eagle Medium (DMEM) supplemented with 10% fetal bovine serum (FBS), 200 units/mL of penicillin and 200 μg/mL of streptomycin. The breast carcinoma line MDA-MB-231 was cultured in low-glucose DMEM with the same additives. Both lines were maintained in a humidified incubator with 5% CO2/95% air at 37° C. UV irradiations were performed with the apparatus described above.
(§3) Growth inhibition experiments were performed by seeding cells into 96-well plates or 24-well plates at densities of 1000-1500 cells per well or 8000 cells per well, respectively, and allowing the cells to adhere overnight. The media was then replaced with a range of aqueous concentrations of the drug in question and allowed to incubate at 37° C. with the cells for a span of time (Inc1) which ranged from 1 min to 48 hours. Irradiation was performed at room temperature with the plate's lid removed and ranged from 1 to 30 min. In some experiments, the drug solution was removed following Inc1 and irradiated in clean media or PBS. Following irradiation, the cells were placed back into the 37° C. incubator for a second period of incubation (Inc2), which varied between 1 min and 24 h, prior to replacement with fresh media. Plates which received no irradiation but identical treatment otherwise were done in parallel. The cells were then grown until the no-drug control wells reached approximately 80% confluence or 5 days, whichever was shorter. […] The cells were fixed with 5% formalin in PBS, stained with crystal violet, washed with tap water, and air-dried. The stain was resolubilized in 50% isopropyl alcohol, 50% H2O containing 2% (w/v) SDS. The staining density was read on a multiwell plate reader at 588-600 nm. Percentage cell density was calculated relative to the irradiated no-drug control wells, plotted as a function of drug concentration, and fit using non-linear least squared analysis with a variable-slope dose response model in GraphPad Prism 5.0 software.
(§4) Although the introduction of a long-pass glass filter between the light source and the plate alleviated this effect to a small extent, a maximum irradiation time of 10 min was settled upon. […] Since a media change at that point would remove the cells as well, the re-adherence of the cell population was accomplished by the addition of a large volume (200 μL) of complete media following Inc2, and overnight incubation. Then, a full media change was done to remove the drug. […]

Data set [2] can be described thus: Quantum yield of photocleavage, He-Cd laser 325 nm, HPLC. It counts as physicochemical. The method, then: Initially, measurement of the quantum yield of photodoxazolidine R═H was done in a fully-absorbing solution of photoactive drug in a solution of 90% dimethylacetamide (DMA), 10% water in a 1×1 cm quartz cuvette equipped with a small magnetic stir bar. A stock of photodoxazolidine in DMA was diluted in 9:1 DMA:H2O to a final concentration of 373 μM in a final volume of 3.380 mL. […] The cuvette was placed into the path of an Omnichrome He-Cd laser (single-window power: 10.75 mW at 325 nm using a Scientech laser power meter). The solution was mixed by the stir bar, which was agitated with a magnetic stir plate placed vertically next to the cuvette. Aliquots of 20 μL were removed at times between 0 and 62 min of irradiation and those aliquots were analyzed by HPLC (method 2) for the ratio of dox to photodoxazolidine. The quantum yield was calculated from the ratio of molecules of doxorubicin (dox) formed to photons absorbed.
To allow for better comparison between the quantum yield of photocleavage of photodoxazolidine with the quantum yield for azido-PEG-photodoxazolidine, the measurement was retaken with 50% acetonitrile in water as a solvent. […] Photodoxazolidine (in DMF) was diluted with 30 mL of 50% acetonitrile to a final concentration of 104 μM. The solution was confirmed to be fully absorbing by monitoring the laser power exiting the cell throughout the course of the experiment, which never deviated from 0 mW. As above, the contents of the cell were mixed with a small magnetic stir bar. Aliquots of 50 μL were removed at various times and analyzed as described above. The calculated quantum yield in this solvent system was identical to that measured from the […] system used above.
Concentration of azido-PEG-photodoxazolidine was determined via absorbance (λ=480 nm, ε=11500 M^−1 cm^−1). A sample ([…]) was dissolved in 1 mL of ACN and transferred to a cuvette. A 12.4 mW Omnichrome HeCd was used to irradiate the solution for 30 min at 325 nm. Aliquots of 10 μL were collected at different times and analyzed by HPLC to determine the % Dox in relation to that of azido-PEG-photodoxazolidine. In calculating quantum yield: power (without cuvette)=12.4 mW, (with cuvette)=10.7 mW, incident light=11.55 mW; energy=0.462 J, 7.55×1017 photons; t=40 sec when % Dox=9.2. Experiments were performed in triplicate.
Azido-PEG-photodoxazolidine was irradiated with a 12.4 mW monochromatic laser at 325 nm for 30 min. Aliquots were collected throughout to determine the amount of azido-PEG-photodoxazolidine in relation to released doxorubicin, which was quantified by HPLC. […] The average of triplicate quantum yield experiments was 0.025. This value is in the low end of the quantum yield range, yet is beneficial because it signifies that UV must be applied for longer durations prior to release of the cytotoxic agent. This makes administration of this photo-activated prodrug safer, and its synthesis more practical.

Data set [3] concerns MDA-MB-231 breast carcinoma cells. Description: Tumor cell uptake by flow cytometry. Type of data set: cell-based, human. As to conditions: 500 nM, 30 min to 4 h, compared against doxorubicin. The method, then:
Uptake of the drugs by the cells was measured by flow cytometry. The cells were incubated with 500 nM photodoxazolidine R═H, azido-PEG-photodoxazolidine, or doxorubicin dissolved in 1:1 PBS:serum-free media for between 30 min and 4 h, after which the drug was removed and the cells washed with cold PBS. Cells were trypsinized to a single-cell suspension, rinsed again in cold PBS, and stored on ice for analysis by flow cytometry, monitoring the presence of the anthraquinone fluorophore (channel FL2). Cell populations were gated for intact cells in the side-scatter/forward-scatter plot and 10,000 gated events were scored for each timepoint. The mean fluorescence of the population was compared to the mean fluorescence of 10,000 gated events for an untreated population and the fold increase over background was plotted versus time of drug incubation.
Using MDA-MB-231 breast carcinoma cells, the cellular uptake of photodoxazolidine and azido-PEG-photodoxazolidine was analyzed by flow cytometry and compared against the uptake of doxorubicin.

The subject of data set [4] is MDA-MB-231 breast cancer cells. Kind of data set: Tumor cell growth inhibition, crystal violet (Example 2). It counts as cell-based, human. The settings on record: Homo sapiens.
Description: as §1, §2, §3, §4

Data set [5] in a line: In vivo body weight change as indication of toxicity. Also noted: species or system nude mice. As to conditions: 4 mg/kg dox equivalent iv weekly x6; photodoxazolidine with 18-FDG ip. The method, then:
For reconstitution for intravenous injection into mice, dry photodoxazolidine R═H (23 mg) was dissolved in 785 μL of DMSO for a final concentration of 34.5 mM, labeled “Drug Stock,” and stored dark at −20° C. Shortly before injection, the Drug Stock was thawed and 20-50 μL was transferred to a new tube. To this tube, 6 volumes (relative to the Drug Stock volume) of PEG-400 and 4 volumes of propylene glycol (PG) were added and the solution thoroughly mixed by vortexing. Immediately prior to injection, 9 volumes of saline (0.9% NaCl) was added to the DMSO/PEG/PG solution of photodoxazolidine and mixed by vortexing. […] Therefore, this formulation was used as prepared. This protocol produces a final formulation of 5% DMSO, 30% PEG-400, 20% PG, 45% saline. A standard injection of 100 μL of this formulation delivers 4 mg dox equivalent/kg body weight for a mouse weighing 0.025 kg.
Luciferase-positive MDA-MB-231 cells were maintained in MEM culture medium supplemented with 10% heat inactivated fetal bovine serum and 2% penicillin/streptomycin. Prior to injection, typsinized cell populations were counted with a Z1 Coulter Particle counter, centrifuged, and resuspended in Hank's Balanced Salt Solution (HBSS) at a concentration of 4.0×10^7 cells/mL. […] Body weight and tumor growth were measured regularly. Tumor growth was measured optically from the bioluminescence signal from injection of luciferin. […]

The next data set deals with cancer cells. As to conditions: cited from earlier work.
The conditions of data set [6]: 37° C., pH 7.4; cited from earlier work.

Read-outs that look alike come from different tables or passages of the source.

`COc1cc(C(C)OC(=O)N2CO[C@@H]3[C@H](C)O[C@@H](O[C@H]4C[C@](O)(C(=O)CO)Cc5c(O)c6c(c(O)c54)C(=O)c4c(OC)cccc4C6=O)C[C@@H]32)c([N+](=O)[O-])cc1OCC(=O)NCCOCCOCCOCCN=[N+]=[N-]` (mixture of isomers) [Azido-PEG-photodoxazolidine] displayed an IC50 in data set [1] (10 min) of 81 ± 7 nM. Moreover, in data set [2], the “quantum yield, fold larger than photodoxazolidine” value was 5-10 fold. Also, the doxorubicin released in data set [2] (40 sec irradiation, 12.4 mW laser at 325 nm) turned out to be 9.2%. Also, the quantum yield in data set [2] (ACN, 325 nm, average of triplicate) was 0.025; in data set [2] (stated as suspected) it was 0.01-0.02. In data set [3], the “cellular uptake (cellular fluorescence)” value is given as “only marginally improved uptake over doxorubicin”.
Regarding `COc1cccc2c1C(=O)c1c(O)c3c(c(O)c1C2=O)C[C@@](O)(C(=O)CO)C[C@@H]3O[C@H]1C[C@H](N)[C@H](O)[C@H](C)O1` [Dox, doxorubicin, reference compound], the half-maximal inhibitory concentration (IC50) in data set [1] (3 h treatment, read-out: IC50) was found to be 10000 nM; in data set [4] (MDA-MB-231, 3 h treatment, read-out: IC50), 360 ± 30 nM. In addition, the body weight change result in data set [5] is reported as “significant weight loss”.
Consider `COc1cccc2c1C(=O)c1c(O)c3c(c(O)c1C2=O)C[C@@](O)(C(=O)CO)C[C@@H]3OC1CC2C(OCN2CN2COC3C(C)OC(O[C@H]4C[C@](O)(C(=O)CO)Cc5c(O)c6c(c(O)c54)C(=O)c4c(OC)cccc4C6=O)CC32)C(C)O1` (stereo partly shown) [DoxF], for which the “anti-tumor activity, fold above doxorubicin” value in the data set on cancer cells was “approximately 100 fold”.
Take `COc1cccc2c1C(=O)c1c(O)c3c(c(O)c1C2=O)C[C@@](O)(C(=O)CO)C[C@@H]3O[C@H]1C[C@@H]2NCO[C@@H]2[C@H](C)O1` [Doxaz, doxazolidine, reference compound]: the IC50 in data set [1] (3 h) was 3 ± 0.2 nM; in data set [4] (MDA-MB-231, 3 h) it was 5 to 10 nM. In data set [6], the half-life is 3 min.
